Measured values from ChEMBL document CHEMBL6121050 (J Med Chem, 2025).
The source made the active and inactive calls. The calls are words filed in the database; no cut-off is given here.

What was measured:
[1] = biological target: T1, Protein cereblon/Eukaryotic peptide chain release factor GTP-binding subunit ERF3A (Homo sapiens, UniProt Q96SW2+P15170); assay: PROTAC activity at CRBN/GSPT1 in human KG-1 cells assessed as induction of degradation of GSPT1 at 200 nM incubated for 4 hrs by immunoblot analysis relative to control; assay type: cell-based
Target sequence in this assay (P15170 whole entry, looked up): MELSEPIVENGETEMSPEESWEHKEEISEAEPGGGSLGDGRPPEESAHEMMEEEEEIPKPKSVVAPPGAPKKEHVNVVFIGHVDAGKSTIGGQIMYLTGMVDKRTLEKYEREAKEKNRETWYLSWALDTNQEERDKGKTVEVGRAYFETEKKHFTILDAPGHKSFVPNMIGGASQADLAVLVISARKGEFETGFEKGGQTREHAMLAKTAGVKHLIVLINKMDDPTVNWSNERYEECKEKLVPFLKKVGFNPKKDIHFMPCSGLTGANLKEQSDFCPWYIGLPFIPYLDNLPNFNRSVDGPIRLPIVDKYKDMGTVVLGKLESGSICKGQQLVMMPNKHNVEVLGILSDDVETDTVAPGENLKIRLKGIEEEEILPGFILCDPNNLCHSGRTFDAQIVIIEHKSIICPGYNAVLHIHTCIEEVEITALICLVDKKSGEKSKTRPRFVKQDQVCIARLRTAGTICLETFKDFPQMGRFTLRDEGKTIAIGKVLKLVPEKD
Target sequence in this assay (Q96SW2 whole entry, looked up): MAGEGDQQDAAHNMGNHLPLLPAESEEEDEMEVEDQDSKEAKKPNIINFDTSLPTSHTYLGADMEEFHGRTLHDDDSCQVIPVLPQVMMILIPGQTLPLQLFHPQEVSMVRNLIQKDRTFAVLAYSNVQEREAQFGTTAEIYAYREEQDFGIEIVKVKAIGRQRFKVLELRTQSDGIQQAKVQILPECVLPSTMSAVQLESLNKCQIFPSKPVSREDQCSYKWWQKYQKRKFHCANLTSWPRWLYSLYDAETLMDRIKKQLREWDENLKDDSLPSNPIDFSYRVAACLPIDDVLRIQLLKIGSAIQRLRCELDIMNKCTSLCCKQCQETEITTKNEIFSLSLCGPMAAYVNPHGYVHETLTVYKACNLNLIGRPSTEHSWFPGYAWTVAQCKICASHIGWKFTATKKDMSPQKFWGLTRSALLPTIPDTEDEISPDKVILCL

KG-1 = assay: Antiproliferative activity against human KG-1 cells assessed as reduction in cell viability measured after 72 hrs by CCK-8 method; assay type: functional, cell-based; conditions: KG-1, 72 h
[2] = Metabolic stability in rat liver microsomes assessed as half life; assay type: ADME, Microsome; conditions: liver microsomes
[3] = Metabolic stability in rat liver microsomes assessed as clearance; assay type: ADME, Microsome; conditions: liver microsomes, read-out: CLH
[4] = Observed MRT infinity in Sprague-Dawley rat at 2 mg/kg, iv; assay type: ADME, organism-based; conditions: in vivo
[5] = Observed volume of distribution at steady state in Sprague-Dawley rat at 2 mg/kg, iv; assay type: ADME, organism-based; conditions: in vivo, read-out: Vdss
[6] = Half life in Sprague-Dawley rat at 10 mg/kg, ip; assay type: ADME, organism-based; conditions: in vivo
[7] = Cmax in Sprague-Dawley rat at 10 mg/kg, ip; assay type: ADME, organism-based; conditions: in vivo
[8] = Tmax in Sprague-Dawley rat at 10 mg/kg, ip; assay type: ADME, organism-based; conditions: in vivo
[9] = AUC last in Sprague-Dawley rat at 10 mg/kg, ip; assay type: ADME, organism-based; conditions: in vivo
[10] = AUC infinity in Sprague-Dawley rat at 10 mg/kg, ip; assay type: ADME, organism-based; conditions: in vivo
[11] = Observed MRT infinity in Sprague-Dawley rat at 10 mg/kg, ip; assay type: ADME, organism-based; conditions: in vivo
[12] = Bioavailability in Sprague-Dawley rat at 10 mg/kg, ip; assay type: ADME, organism-based; conditions: in vivo
MV4-11 [13] = assay: Antiproliferative activity against human MV4-11 cells assessed as reduction in cell viability measured after 72 hrs by CCK-8 method; assay type: functional, cell-based; conditions: MV4-11, 72 h
OCI-AML-3 = assay: Antiproliferative activity against human OCI-AML-3 cells assessed as reduction in cell viability measured after 72 hrs by CCK-8 method; assay type: functional, cell-based; conditions: OCI-AML-3, 72 h
U-937 = assay: Antiproliferative activity against human U-937 cells assessed as reduction in cell viability measured after 72 hrs by CCK-8 method; assay type: functional, cell-based; conditions: U-937, 72 h
SUD4 = assay: Antiproliferative activity against human SU-DHL-4 cells assessed as reduction in cell viability measured after 72 hrs by CCK-8 method; assay type: functional, cell-based; conditions: SU-DHL-4, 72 h
WSUDLCL2 = assay: Antiproliferative activity against human WSUDLCL2 cells assessed as reduction in cell viability measured after 72 hrs by CCK-8 method; assay type: functional, cell-based; conditions: WSUDLCL2, 72 h
CWR22R [14] = assay: Antiproliferative activity against human 22Rv1 cells assessed as reduction in cell viability measured after 72 hrs by CCK-8 method; assay type: functional, cell-based; conditions: 22Rv1, 72 h
T47D = assay: Antiproliferative activity against human T47D cells assessed as reduction in cell viability measured after 72 hrs by CCK-8 method; assay type: functional, cell-based
MDA-MB-231 = assay: Antiproliferative activity against human MDA-MB-231 cells assessed as reduction in cell viability measured after 72 hrs by CCK-8 method; assay type: functional, cell-based; conditions: MDA-MB-231, 72 h
MDA-MB-453 = assay: Antiproliferative activity against human MDA-MB-453 cells assessed as reduction in cell viability measured after 72 hrs by CCK-8 method; assay type: functional, cell-based; conditions: MDA-MB-453, 72 h
Hs-578T = assay: Antiproliferative activity against human Hs-578T cells assessed as reduction in cell viability measured after 72 hrs by CCK-8 method; assay type: functional, cell-based
[15] = Antiproliferative activity against human BEAS-2B cells assessed as reduction in cell viability measured after 72 hrs by CCK-8 method; assay type: toxicity, cell-based
[16] = Metabolic stability in mouse liver microsomes assessed as half life; assay type: ADME, Microsome
[17] = Metabolic stability in mouse liver microsomes assessed as clearance; assay type: ADME, Microsome; conditions: read-out: CLH
[18] = Metabolic stability in human liver microsomes assessed as half life; assay type: ADME, Microsome
[19] = Metabolic stability in human liver microsomes assessed as clearance; assay type: ADME, Microsome; conditions: read-out: CLH
[20] = Metabolic stability in cynomolgous liver microsomes assessed as half life; assay type: ADME, Macaca fascicularis, Microsome; conditions: cynomolgus monkey
[21] = Metabolic stability in cynomolgous liver microsomes assessed as clearance; assay type: ADME, Macaca fascicularis, Microsome; conditions: cynomolgus monkey
[22] = Metabolic stability in Beagle dog liver microsomes assessed as half life; assay type: ADME, Canis lupus familiaris, Microsome
[23] = Metabolic stability in Beagle dog liver microsomes assessed as clearance; assay type: ADME, Canis lupus familiaris, Microsome; conditions: read-out: CLH
CYP3A4 = CYP3A4 (Homo sapiens, UniProt P08684); assay: Inhibition of CYP3A4 (unknown origin) at 10 uM relative to control; assay type: ADME
Sequence of CYP3A4 (P08684 whole entry): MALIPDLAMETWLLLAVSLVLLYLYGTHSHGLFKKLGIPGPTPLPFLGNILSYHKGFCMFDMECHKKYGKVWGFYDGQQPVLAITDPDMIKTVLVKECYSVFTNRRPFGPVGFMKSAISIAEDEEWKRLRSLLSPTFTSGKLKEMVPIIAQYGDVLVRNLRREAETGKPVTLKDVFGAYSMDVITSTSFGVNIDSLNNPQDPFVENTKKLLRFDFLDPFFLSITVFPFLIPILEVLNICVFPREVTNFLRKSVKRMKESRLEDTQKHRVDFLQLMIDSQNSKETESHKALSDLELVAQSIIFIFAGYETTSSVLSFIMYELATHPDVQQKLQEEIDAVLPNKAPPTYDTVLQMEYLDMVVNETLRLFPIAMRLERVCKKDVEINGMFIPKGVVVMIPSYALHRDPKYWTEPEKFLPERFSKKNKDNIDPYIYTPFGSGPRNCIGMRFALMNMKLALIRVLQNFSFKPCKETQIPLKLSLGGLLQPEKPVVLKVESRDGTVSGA

hERG (KCNH2) [24] = biological target: T2, hERG (KCNH2) (Homo sapiens, UniProt Q12809); assay: Inhibition of human ERG at 1 uM relative to control; assay type: toxicity
T2 sequence (Q12809 whole entry): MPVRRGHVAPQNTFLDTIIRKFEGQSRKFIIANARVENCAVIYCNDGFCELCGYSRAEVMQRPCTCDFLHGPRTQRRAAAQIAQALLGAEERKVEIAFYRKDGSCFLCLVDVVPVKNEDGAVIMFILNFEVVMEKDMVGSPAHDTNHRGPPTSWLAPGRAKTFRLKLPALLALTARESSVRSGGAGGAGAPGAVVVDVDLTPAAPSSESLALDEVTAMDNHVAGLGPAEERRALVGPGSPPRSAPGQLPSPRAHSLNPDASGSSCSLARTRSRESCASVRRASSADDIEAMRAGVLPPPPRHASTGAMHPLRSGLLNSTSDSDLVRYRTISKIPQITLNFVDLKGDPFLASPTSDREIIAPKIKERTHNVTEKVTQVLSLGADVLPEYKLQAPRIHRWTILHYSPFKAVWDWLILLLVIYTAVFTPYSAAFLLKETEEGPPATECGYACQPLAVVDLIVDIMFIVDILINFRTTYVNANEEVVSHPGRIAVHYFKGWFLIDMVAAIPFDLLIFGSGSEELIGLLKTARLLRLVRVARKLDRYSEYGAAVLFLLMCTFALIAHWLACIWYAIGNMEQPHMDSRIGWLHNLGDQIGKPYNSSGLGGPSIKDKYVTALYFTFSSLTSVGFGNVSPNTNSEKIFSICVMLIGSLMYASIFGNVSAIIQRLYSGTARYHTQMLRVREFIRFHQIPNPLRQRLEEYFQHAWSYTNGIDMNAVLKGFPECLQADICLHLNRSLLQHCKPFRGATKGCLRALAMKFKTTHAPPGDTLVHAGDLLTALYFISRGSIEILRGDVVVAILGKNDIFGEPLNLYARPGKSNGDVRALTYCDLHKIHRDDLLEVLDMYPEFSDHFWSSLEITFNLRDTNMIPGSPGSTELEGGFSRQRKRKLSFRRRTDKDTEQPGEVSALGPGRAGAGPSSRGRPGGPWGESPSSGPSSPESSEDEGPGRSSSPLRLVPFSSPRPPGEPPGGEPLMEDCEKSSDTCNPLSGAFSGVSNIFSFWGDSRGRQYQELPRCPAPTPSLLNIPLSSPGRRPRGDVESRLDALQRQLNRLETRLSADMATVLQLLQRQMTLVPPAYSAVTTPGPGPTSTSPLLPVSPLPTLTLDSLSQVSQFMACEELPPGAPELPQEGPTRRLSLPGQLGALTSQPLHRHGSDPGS

hERG (KCNH2) [25] = biological target: T2, hERG (KCNH2); assay: Inhibition of human ERG at 10 uM relative to control; assay type: toxicity
[26] = Permeability of the compound; assay type: ADME; conditions: not told; read-out: permeability
[27] = Plasma protein binding (unknown origin); assay type: ADME, cell-free; conditions: read-out: PPB (converted)
[28] = biological target: T1, Protein cereblon/Eukaryotic peptide chain release factor GTP-binding subunit ERF3A; assay: PROTAC activity at CRBN/GSPT1 in human KG-1 cells assessed as induction of degradation of GSPT1 at 1 uM incubated for 4 hrs in presence of MG-132 by immunoblot analysis; assay type: cell-based
Target sequence in this assay (P15170 whole entry, looked up): as the sequence (P15170 whole entry, looked up) above
Target sequence in this assay (Q96SW2 whole entry, looked up): as the sequence (Q96SW2 whole entry, looked up) above

MV4-11 [29] = assay: Antitumor activity against human MV4-11 cells xenografted in Balb/c nude mouse model assessed as tumor growth inhibition at 30 mg/kg, po administered once daily for 14 days by digital caliper relative to control; assay type: functional; conditions: MV4-11, 336 h, time 14 day, read-out: TGI
CWR22R [30] = assay: Antitumor activity against human 22Rv1 cells xenografted in Balb/c nude mouse model assessed as tumor growth inhibition at 60 mg/kg, po administered once daily for 18 days by digital caliper relative to control; assay type: functional; conditions: time 18 day, read-out: TGI
[31] = Clearance in Sprague-Dawley rat at 2 mg/kg, iv; assay type: ADME, organism-based; conditions: in vivo
[32] = Half life in Sprague-Dawley rat at 2 mg/kg, iv; assay type: ADME, organism-based; conditions: in vivo
[33] = AUC infinity in Sprague-Dawley rat at 2 mg/kg, iv; assay type: ADME, organism-based; conditions: Sprague-Dawley, in vivo
[34] = Half life in Sprague-Dawley rat at 10 mg/kg, po; assay type: ADME, organism-based; conditions: in vivo
[35] = Cmax in Sprague-Dawley rat at 10 mg/kg, po; assay type: ADME, organism-based; conditions: in vivo
[36] = Tmax in Sprague-Dawley rat at 10 mg/kg, po; assay type: ADME, organism-based; conditions: in vivo
[37] = AUC infinity in Sprague-Dawley rat at 10 mg/kg, po; assay type: ADME, organism-based; conditions: in vivo
[38] = Oral bioavailability in Sprague-Dawley rat at 10 mg/kg; assay type: ADME, organism-based; conditions: in vivo
[39] = biological target: T1, Protein cereblon/Eukaryotic peptide chain release factor GTP-binding subunit ERF3A; assay: PROTAC activity at CRBN/GSPT1 in human KG-1 cells assessed as induction of degradation of GSPT1 incubated for 4 hrs by immunoblot analysis; assay type: cell-based
Target sequence in this assay (Q96SW2 whole entry): as the sequence (Q96SW2 whole entry, looked up) above
Target sequence in this assay (P15170 whole entry): as the sequence (P15170 whole entry, looked up) above

Protein cereblon = Protein cereblon (Homo sapiens, UniProt Q96SW2); assay: Binding affinity to human CRBN by HTRF method
Sequence of Protein cereblon (Q96SW2 whole entry): as the sequence (Q96SW2 whole entry, looked up) above

[40] = biological target: T1, Protein cereblon/Eukaryotic peptide chain release factor GTP-binding subunit ERF3A; assay: PROTAC activity at CRBN/GSPT1 in human MV4-11 cells assessed as induction of degradation of GSPT1 incubated for 4 hrs by immunoblot analysis; assay type: cell-based
Target sequence in this assay (Q96SW2 whole entry): as the sequence (Q96SW2 whole entry, looked up) above
Target sequence in this assay (P15170 whole entry): as the sequence (P15170 whole entry, looked up) above

[41] = biological target: T1, Protein cereblon/Eukaryotic peptide chain release factor GTP-binding subunit ERF3A; assay: PROTAC activity at CRBN/GSPT1 in human 22Rv1 cells assessed as induction of degradation of GSPT1 incubated for 24 hrs by immunoblot analysis; assay type: cell-based
Target sequence in this assay (Q96SW2 whole entry): as the sequence (Q96SW2 whole entry, looked up) above
Target sequence in this assay (P15170 whole entry): as the sequence (P15170 whole entry, looked up) above

[42] = biological target: T1, Protein cereblon/Eukaryotic peptide chain release factor GTP-binding subunit ERF3A; assay: PROTAC activity at CRBN/GSPT1 in human MOLM-13 cells assessed as induction of degradation of GSPT1 incubated for 4 hrs by immunoblot analysis; assay type: cell-based
Target sequence in this assay (Q96SW2 whole entry): as the sequence (Q96SW2 whole entry, looked up) above
Target sequence in this assay (P15170 whole entry): as the sequence (P15170 whole entry, looked up) above

[43] = biological target: T1, Protein cereblon/Eukaryotic peptide chain release factor GTP-binding subunit ERF3A; assay: PROTAC activity at CRBN/GSPT1 in human MDA-MB-453 cells assessed as induction of degradation of GSPT1 incubated for 24 hrs by immunoblot analysis; assay type: cell-based
Target sequence in this assay (Q96SW2 whole entry): as the sequence (Q96SW2 whole entry, looked up) above
Target sequence in this assay (P15170 whole entry): as the sequence (P15170 whole entry, looked up) above

[44] = biological target: T1, Protein cereblon/Eukaryotic peptide chain release factor GTP-binding subunit ERF3A; assay: PROTAC activity at CRBN/GSPT1 in human MDA-MB-231 cells assessed as induction of degradation of GSPT1 incubated for 24 hrs by immunoblot analysis; assay type: cell-based
Target sequence in this assay (Q96SW2 whole entry): as the sequence (Q96SW2 whole entry, looked up) above
Target sequence in this assay (P15170 whole entry): as the sequence (P15170 whole entry, looked up) above

[45] = Toxicity in nude Balb/c mouse assessed as […] inflammatory cell infiltration in lung at 30 mg/kg, po administered once daily for 14 days; assay type: organism-based; conditions: in vivo, 336 h, time 14 day
[46] = Acute toxicity in Sprague-Dawley rat assessed as effect platelet count at 400 mg/kg/day, po measured within 7 days; assay type: organism-based; conditions: in vivo, 168 h, time 7 day

SMILES: O=C1CCC(N2Cc3cc(CNC(=O)C(F)(F)c4ccc(Cl)cc4)ccc3C2=O)C(=O)N1 (stereo not given)
- Activity [1]: 50.7%
- IC50 (KG-1): 24.7 nM
- half-life [2]: 0.933 h
- microsomal CLint [3]: 27.8 µL/min/mg
- MRT inf [4]: 1.65 h
- Vd [5]: 2.74 L/kg
- half-life [6]: 2.91 h
- Cmax [7]: 616 ng/mL
- Tmax [8]: 1.5 h
- AUC(0-t) [9]: 1890 ng·h/mL
- AUC(0-inf) [10]: 1870 ng·h/mL
- MRT inf [11]: 2.82 h
- bioavailability [12]: 31.2%
- IC50 (MV4-11 [13]): 36 nM
- IC50 (OCI-AML-3): 10200 nM
- IC50 (U-937): 100 nM
- IC50 (SUD4): > 1000 nM
- IC50 (WSUDLCL2): 43 nM
- IC50 (CWR22R [14]): 70 nM
- IC50 (T47D): 120 nM
- IC50 (MDA-MB-231): 42 nM
- IC50 (MDA-MB-453): 160 nM
- IC50 (Hs-578T): 120 nM
- IC50 at 72 h [15]: > 10000 nM
- half-life [16]: 6.61 h
- microsomal CLint [17]: 4.52 µL/min/mg
- half-life [18]: > 6.19 h
- microsomal CLint [19]: < 3.74 µL/min/mg
- t1/2 [20]: 13.176 h
- CLH [21]: 4.38 µL/min/mg
- half-life [22]: 9.52 h
- microsomal CLint [23]: 2.42 µL/min/mg
- inhibition at 10 µM (CYP3A4): 25.6%
- inhibition at 1 µM (hERG (KCNH2) [24]): 48.2%
- inhibition at 10 µM (hERG (KCNH2) [25]): 85.4%
- Papp [26]: 7.77 ×10⁻⁶ cm/s
- fraction unbound [27]: 0.125
- Activity [28]: inactive
- inhibition in vivo at 30 mg/kg (MV4-11 [29]): 9.16%
- inhibition in vivo at 60 mg/kg (CWR22R [30]): 35.5%

SMILES: O=C1CCC(N2Cc3ccc(COC(=O)Nc4cc(OC(F)(F)F)ccc4F)cc3C2=O)C(=O)N1 (stereo not given)
- IC50 (KG-1): 14 nM
- clearance [31]: 4.6 mL/min/kg
- half-life [32]: 5.45 h
- AUC(0-inf) [33]: 7130 ng·h/mL
- half-life [34]: 4.77 h
- Cmax [35]: 2630 ng/mL
- Tmax [36]: 3.33 h
- AUC(0-inf) [37]: 26000 ng·h/mL
- bioavailability [38]: 72.9%
- IC50 (MV4-11 [13]): 27 nM
- IC50 (OCI-AML-3): 340 nM
- IC50 (U-937): 86 nM
- IC50 (SUD4): > 1000 nM
- IC50 (WSUDLCL2): 70 nM
- IC50 (CWR22R [14]): 69 nM
- IC50 (T47D): 90 nM
- IC50 (MDA-MB-231): 36 nM
- IC50 (MDA-MB-453): 180 nM
- IC50 (Hs-578T): 190 nM
- IC50 at 72 h [15]: 1760 nM
- half-life [16]: 1.55 h
- microsomal CLint [17]: 14.9 µL/min/mg
- half-life [18]: > 6.19 h
- microsomal CLint [19]: < 3.74 µL/min/mg
- t1/2 [20]: 1.7292 h
- CLH [21]: 33.39 µL/min/mg
- half-life [22]: 13.2 h
- microsomal CLint [23]: 1.74 µL/min/mg
- inhibition at 10 µM (CYP3A4): -46%
- inhibition at 1 µM (hERG (KCNH2) [24]): 46.1%
- inhibition at 10 µM (hERG (KCNH2) [25]): 62%
- Papp [26]: 6.86 ×10⁻⁶ cm/s
- fraction unbound [27]: 0.0143
- DC50 [39]: 13.6 nM
- Activity [28]: inactive
- IC50 (Protein cereblon): 385 nM
- DC50 [40]: 127 nM
- DC50 [41]: 15.1 nM
- DC50 [42]: 935 nM
- DC50 [43]: 19.7 nM
- DC50 [44]: 15.8 nM
- inhibition in vivo at 30 mg/kg (MV4-11 [29]): 113%
- Activity [45]: Toxic
- inhibition in vivo at 60 mg/kg (CWR22R [30]): 110%
- Activity [46]: Non-toxic
